{"source": "paper PMC8301926", "about": "(Biomolecules, 2021)", "key": {"[1]": {"biological_target": "T1, human M3 muscarinic acetylcholine receptor (hM3R) (Homo sapiens, UniProt P20309)", "T1 construct": "host or cells: CHO cells", "T1 sequence (P20309 whole entry)": "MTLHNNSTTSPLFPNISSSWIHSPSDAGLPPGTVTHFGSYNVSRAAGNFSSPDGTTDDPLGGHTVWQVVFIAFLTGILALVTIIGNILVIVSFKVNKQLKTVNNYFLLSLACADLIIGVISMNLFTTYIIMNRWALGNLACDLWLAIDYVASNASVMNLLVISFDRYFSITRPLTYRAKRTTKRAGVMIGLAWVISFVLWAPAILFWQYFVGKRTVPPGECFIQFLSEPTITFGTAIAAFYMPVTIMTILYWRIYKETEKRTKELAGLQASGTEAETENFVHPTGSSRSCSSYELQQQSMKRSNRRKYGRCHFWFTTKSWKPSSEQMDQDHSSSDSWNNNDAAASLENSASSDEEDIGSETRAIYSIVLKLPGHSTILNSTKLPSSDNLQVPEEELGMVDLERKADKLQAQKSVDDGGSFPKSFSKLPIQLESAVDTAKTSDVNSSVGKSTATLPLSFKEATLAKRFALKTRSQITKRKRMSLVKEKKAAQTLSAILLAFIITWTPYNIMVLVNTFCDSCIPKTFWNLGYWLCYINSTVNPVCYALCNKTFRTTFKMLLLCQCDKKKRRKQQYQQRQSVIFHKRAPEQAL", "assay": "M3 (h) functional GPCR assay, antagonist effect, intracellular Ca2+", "assay_type": "cell-based", "conditions": "CHO"}, "[2]": {"biological_target": "T2, recombinant human monoamine oxidase A (hMAO-A) (Homo sapiens, UniProt P21397)", "T2 sequence (P21397 1-527)": "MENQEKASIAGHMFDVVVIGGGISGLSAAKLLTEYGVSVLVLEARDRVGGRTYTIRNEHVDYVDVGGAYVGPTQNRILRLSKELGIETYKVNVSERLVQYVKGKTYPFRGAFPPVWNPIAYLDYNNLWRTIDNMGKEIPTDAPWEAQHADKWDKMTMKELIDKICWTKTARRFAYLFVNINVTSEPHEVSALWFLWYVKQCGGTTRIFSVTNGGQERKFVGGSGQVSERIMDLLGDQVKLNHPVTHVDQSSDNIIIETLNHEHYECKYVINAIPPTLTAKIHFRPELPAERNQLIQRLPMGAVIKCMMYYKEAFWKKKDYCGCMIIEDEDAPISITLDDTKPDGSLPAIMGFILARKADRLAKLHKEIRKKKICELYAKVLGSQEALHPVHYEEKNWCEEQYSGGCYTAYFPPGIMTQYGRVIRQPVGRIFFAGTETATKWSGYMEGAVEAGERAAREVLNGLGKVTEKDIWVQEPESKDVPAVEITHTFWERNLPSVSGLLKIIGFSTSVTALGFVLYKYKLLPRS", "assay": "hMAO-A inhibition, MAO-Glo chemiluminescent assay", "assay_type": "biochemical"}, "[3]": {"biological_target": "T3, recombinant human monoamine oxidase B (hMAO-B) (Homo sapiens, UniProt P27338)", "T3 sequence (P27338 1-520)": "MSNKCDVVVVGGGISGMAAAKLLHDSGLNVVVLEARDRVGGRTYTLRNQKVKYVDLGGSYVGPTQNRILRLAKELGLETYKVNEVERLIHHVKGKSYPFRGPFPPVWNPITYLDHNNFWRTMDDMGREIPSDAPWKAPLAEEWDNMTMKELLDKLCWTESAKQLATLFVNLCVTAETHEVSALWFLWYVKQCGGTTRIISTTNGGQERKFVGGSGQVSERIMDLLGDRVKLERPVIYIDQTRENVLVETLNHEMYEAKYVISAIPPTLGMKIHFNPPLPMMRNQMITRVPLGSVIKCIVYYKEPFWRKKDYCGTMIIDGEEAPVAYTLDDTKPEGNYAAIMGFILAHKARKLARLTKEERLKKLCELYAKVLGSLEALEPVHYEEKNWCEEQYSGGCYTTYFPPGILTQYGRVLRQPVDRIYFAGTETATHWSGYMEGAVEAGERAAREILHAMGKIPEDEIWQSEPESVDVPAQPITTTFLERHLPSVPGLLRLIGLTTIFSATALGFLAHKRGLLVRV", "assay": "hMAO-B enzyme kinetics (Lineweaver-Burk, Dixon, secondary plots)", "assay_type": "biochemical", "conditions": "for Ki: hMAO-B, from secondary plots; for Inhibition Type, hMAO-B: Lineweaver-Burk and Dixon plots"}, "[4]": {"tested_on": "recombinant human MAO-A (hMAO-A)", "design": "method as in earlier work", "conditions": "ref 27 (Dittman et al., 2004); read-out: IC50, recombinant human MAO-A (literature); cited from earlier work"}, "[5]": {"biological_target": "T4, human M2 muscarinic acetylcholine receptor (hM2R) (Homo sapiens, UniProt P08172)", "T4 construct": "host or cells: CHO cells", "T4 sequence (P08172 1-466)": "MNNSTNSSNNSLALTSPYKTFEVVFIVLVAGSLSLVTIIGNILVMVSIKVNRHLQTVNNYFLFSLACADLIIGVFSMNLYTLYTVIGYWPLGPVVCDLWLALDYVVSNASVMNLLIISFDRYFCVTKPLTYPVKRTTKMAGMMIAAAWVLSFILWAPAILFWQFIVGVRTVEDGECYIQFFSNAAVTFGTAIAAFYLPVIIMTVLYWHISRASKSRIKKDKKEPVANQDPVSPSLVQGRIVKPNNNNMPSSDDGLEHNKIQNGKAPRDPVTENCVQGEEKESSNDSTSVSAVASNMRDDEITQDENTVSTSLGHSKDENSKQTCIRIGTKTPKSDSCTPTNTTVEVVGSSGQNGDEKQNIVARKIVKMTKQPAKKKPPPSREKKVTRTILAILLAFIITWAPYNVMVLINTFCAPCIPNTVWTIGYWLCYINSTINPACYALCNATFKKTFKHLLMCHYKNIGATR", "assay": "M2 (h) functional GPCR assay, agonist effect, cAMP HTRF", "assay_type": "cell-based", "conditions": "100 µM; % of control response to 3-µM acetylcholine; CHO cells"}, "[6]": {"biological_target": "T5, human M5 muscarinic acetylcholine receptor (hM5R) (Homo sapiens, UniProt P08912)", "T5 construct": "host or cells: RBL (rat basophilic leukemic) cells", "T5 sequence (P08912 1-532)": "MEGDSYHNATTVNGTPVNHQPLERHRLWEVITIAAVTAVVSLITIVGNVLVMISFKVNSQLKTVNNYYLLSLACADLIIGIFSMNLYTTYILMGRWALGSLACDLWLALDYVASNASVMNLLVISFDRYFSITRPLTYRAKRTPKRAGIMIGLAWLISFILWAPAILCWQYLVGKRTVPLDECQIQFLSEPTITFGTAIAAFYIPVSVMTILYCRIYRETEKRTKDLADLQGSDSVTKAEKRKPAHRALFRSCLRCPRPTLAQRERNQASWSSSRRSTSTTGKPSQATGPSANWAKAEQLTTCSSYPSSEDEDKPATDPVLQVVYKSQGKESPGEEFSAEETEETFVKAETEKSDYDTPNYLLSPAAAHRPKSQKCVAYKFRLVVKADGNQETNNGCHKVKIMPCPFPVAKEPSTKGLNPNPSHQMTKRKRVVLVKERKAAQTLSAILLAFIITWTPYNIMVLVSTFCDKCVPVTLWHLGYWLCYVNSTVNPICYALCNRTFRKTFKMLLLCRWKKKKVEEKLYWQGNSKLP", "assay": "M5 (h) functional GPCR assay, agonist effect, intracellular Ca2+", "assay_type": "cell-based", "conditions": "100 µM; % of control response to 624-nM acetylcholine; RBL cells"}, "[7]": {"biological_target": "T5, human M5 muscarinic acetylcholine receptor (hM5R)", "assay": "M5 (h) functional GPCR assay, antagonist effect, intracellular Ca2+", "assay_type": "cell-based", "conditions": "RBL"}, "[8]": {"biological_target": "T1, human M3 muscarinic acetylcholine receptor (hM3R)", "assay": "M3 (h) functional GPCR assay, agonist effect, intracellular Ca2+", "assay_type": "cell-based", "conditions": "100 µM; % of control response to 1-µM acetylcholine; CHO cells"}}, "note": "Several values for one entry are separate records, joined by “and”; a condition that tells them apart may be missing. Equal entries are not always repeated.", "data": [{"compound": "Cc1coc2c1C(=O)C(=O)c1c-2ccc2c(C)cccc12", "note": "[Tanshinone I]", "values": [{"measurement": "inhibition at 100 µM", "setting": "[1]", "value": "3.3 ± 11.2", "unit": "%"}, {"measurement": "IC50", "setting": "[2]; IC50, hMAO-A, mean ± SD of triplicate experiments", "value": "< 10 µM and 2.62 µM"}, {"measurement": "SI (selectivity index)", "setting": "[2]; ratio of the IC50 value for hMAO-A inhibition to that for hMAO-B inhibition", "value": 0.11}, {"measurement": "Ki", "setting": "[3]; Kic", "value": "25.6 ± 1.1", "unit": "µM"}, {"measurement": "Ki", "setting": "[3]; Kiu", "value": "17.4 ± 0.78", "unit": "µM"}, {"measurement": "Inhibition Type, hMAO-B", "setting": "[3]", "value": "Mixed"}, {"measurement": "Inhibition Type, hMAO-B", "setting": "[3]; listed as 1", "value": "mixed mode of inhibition"}, {"measurement": "IC50", "setting": "[4]", "value": 80, "unit": "µM"}, {"measurement": "% Stimulation, M2", "setting": "[5]", "value": "12.6 ± 3.61", "unit": "%"}, {"measurement": "% Stimulation, M5", "setting": "[6]", "value": "−1.6 ± 0.85", "unit": "%"}, {"measurement": "inhibition at 100 µM", "setting": "[7]", "value": "-0.5 ± 0.42", "unit": "%"}, {"measurement": "% Stimulation, M3", "setting": "[8]", "value": "−2.3 ± 0.21", "unit": "%"}]}]}
